Data as given in patent US6133302A, “5-(3-Phenyl-3-oxo-propyl)-1H-tetrazole derivatives” (Pharmacia & Upjohn SpA, priority 1997, dated 2000).

Target: T1, kynurenine-3-hydroxylase (Rattus norvegicus, UniProt O88867)
T1 construct: Rat liver mitochondrial extract was used as enzymatic preparation for this assay; from tissue; host or cells: rat liver mitochondrial extract
Assay: KYN-3-OH inhibition; kynurenine 3-hydroxylase assay based on enzymatic synthesis of tritiated water in rat liver mitochondrial extract
Type: biochemical
Settings: 37° C., 30 min, pH 8.1, 0.025 mM L-Kynurenine, 0.8 mM NADPH
Method: The assay for kynurenine 3-hydroxylase is based on the enzymatic synthesis of tritiated water during the hydroxylation reaction. Radiolabeled water was quantified following selective adsorption of the isotopic substrate and its metabolite with activated charcoal.
Rat liver mitochondrial extract was used as enzymatic preparation for this assay.
The assay for kynurenine 3-hydroxylase activity was carried out at 37° C. for a time of 30 min. The reaction mixture having a total volume of […] was constituted of 44 mg of suspended extract, 100 mM Tris/Cl^- buffer pH 8.1, 10 mM EDTA, 100 mM KCl, 0.8 mM NADPH, 0.025 mM L-Kynurenine, 0.5 mCi L-(3,5-^3 H)Kynurenine (10 Ci/mmol) and […] of different concentration of inhibitor solutions. After the incubation, the reaction was terminated by adding 1 ml of 7.5% (W/v) activated charcoal, vortexed and centrifuged for 7 min.
A […] aliquot of supernatant was counted by scintillation spectroscopy in 5 ml of liquid scintillation.

T1 sequence (O88867 whole entry): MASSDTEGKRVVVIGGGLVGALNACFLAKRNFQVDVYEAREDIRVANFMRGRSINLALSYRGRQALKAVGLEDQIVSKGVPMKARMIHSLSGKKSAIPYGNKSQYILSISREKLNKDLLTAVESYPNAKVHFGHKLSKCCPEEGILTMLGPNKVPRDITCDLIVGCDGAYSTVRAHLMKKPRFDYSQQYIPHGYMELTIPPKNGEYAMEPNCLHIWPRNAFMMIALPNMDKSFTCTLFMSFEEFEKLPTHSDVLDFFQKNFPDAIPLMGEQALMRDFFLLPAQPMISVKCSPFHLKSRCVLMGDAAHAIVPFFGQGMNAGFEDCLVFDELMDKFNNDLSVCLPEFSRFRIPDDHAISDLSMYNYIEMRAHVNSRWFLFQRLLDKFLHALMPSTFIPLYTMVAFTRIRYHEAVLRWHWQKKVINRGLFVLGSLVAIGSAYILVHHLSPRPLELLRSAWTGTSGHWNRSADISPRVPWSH

IC50: 2.32 µM
SMILES: O=C(CC(Cc1ccccc1)c1nnn[nH]1)c1ccc(Cl)c(Cl)c1 (stereo not shown) [PNU-168778, 5-[1-benzyl-3-(3,4-dichlorophenyl)-3-oxo-propyl]-1H-tetrazole]
